From patent US20260374754A1, “N-((ISOQUINOLIN-6-YL)METHYL)-1H-PYRAZOLE-4-CARBOXAMIDE DERIVATIVES AS PLASMA KALLIKREIN INHIBITORS FOR THE TREATMENT OF HEREDITARY ANGIODEMA” (Takeda Pharmaceutical Company Limited, priority 2022, published 2026)
Structures can show the parent of a compound that is named as a salt.

These molecules were tested against human activated kallikrein enzyme (Homo sapiens, UniProt P03952) (assay: Inhibition of human activated plasma kallikrein, fluorogenic PFR-AMC substrate, 500 pM enzyme format). Details: 500 pM activated kallikrein; 300 μM PFR-AMC; 30 min preincubation; 10 min room temperature; pH 7.5; read-out: Primary Dose Response Assay: Average EC50.
Chain of human activated kallikrein enzyme (P03952 391-638 limits assumed): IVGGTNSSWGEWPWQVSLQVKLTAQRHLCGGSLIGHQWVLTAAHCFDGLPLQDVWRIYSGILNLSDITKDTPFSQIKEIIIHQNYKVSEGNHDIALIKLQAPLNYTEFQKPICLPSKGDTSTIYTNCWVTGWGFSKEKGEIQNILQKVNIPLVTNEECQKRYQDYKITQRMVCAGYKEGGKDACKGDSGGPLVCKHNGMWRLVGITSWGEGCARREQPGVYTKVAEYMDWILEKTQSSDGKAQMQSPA
Chain of human activated kallikrein enzyme (P03952 20-390 partner limits assumed): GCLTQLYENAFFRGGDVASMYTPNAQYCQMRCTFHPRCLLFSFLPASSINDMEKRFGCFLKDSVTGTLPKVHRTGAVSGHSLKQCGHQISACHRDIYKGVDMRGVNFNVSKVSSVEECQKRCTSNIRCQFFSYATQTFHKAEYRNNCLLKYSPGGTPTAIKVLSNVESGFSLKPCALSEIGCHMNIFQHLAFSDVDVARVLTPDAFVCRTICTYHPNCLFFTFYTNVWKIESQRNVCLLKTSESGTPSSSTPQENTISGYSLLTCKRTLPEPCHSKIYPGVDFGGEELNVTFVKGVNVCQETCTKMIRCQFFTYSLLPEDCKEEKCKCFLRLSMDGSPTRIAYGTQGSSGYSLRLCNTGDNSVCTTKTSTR
Type: biochemical
Summary of the method: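 500 pM activated kallikrein preincubated 30 min at room temperature with inhibitors in pH 7.5 Tris/EDTA/NaCl buffer with PEG-400 and Triton X-100. Reaction started with 300 μM PFR-AMC, run 10 min at room temperature; AMC fluorescence read at ex 380/em 460 nm.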

SMILES	EC50 [µM]
C/C=C\c1ccc2nc(Cn3ccc(C(=O)NCc4c(C)cc5c(N)nccc5c4C)n3)cn2c1 [Example 177, (Z)-N-((1-amino-5,7-dimethylisoquinolin-6-yl)methyl)-1-((6-(prop-1-en-1-yl)imidazo[1,2-a]pyridin-2-yl)methyl)-1H-pyrazole-3-carboxamide]	< 0.001
Cc1cc2c(N)nccc2c(C)c1CNC(=O)c1cnn(Cc2ccc(N(C)C(=O)N3CCCC3)cc2)c1 [Example 21, N-((1-amino-5,7-dimethylisoquinolin-6-yl)methyl)-1-(4-(N-methylpyrrolidine-1-carboxamido)benzyl)-1H-pyrazole-4-carboxamide]	0.001 to 0.01
Cc1cc2nc(Cn3cc(C(=O)NCc4c(C)cc5c(N)nccc5c4C)cn3)cn2cc1C [Example 102, N-((1-amino-5,7-dimethylisoquinolin-6-yl)methyl)-1-((6,7-dimethylimidazo[1,2-a]pyridin-2-yl)methyl)-1H-pyrazole-4-carboxamide]	< 0.001
Cc1ccn2cc(Cn3cc(C(=O)NCc4c(C)cc5c(N)nccc5c4C)cn3)nc2c1 [Example 103, N-((1-amino-5,7-dimethylisoquinolin-6-yl)methyl)-1-((7-methylimidazo[1,2-a]pyridin-2-yl)methyl)-1H-pyrazole-4-carboxamide]	< 0.001
CCc1c(Cl)ccc2nc(Cn3cc(C(=O)NCc4c(C)cc5c(N)nccc5c4C)cn3)cn12 [Example 141, N-((1-amino-5,7-dimethylisoquinolin-6-yl)methyl)-1-((6-chloro-5-ethylimidazo[1,2-a]pyridin-2-yl)methyl)-1H-pyrazole-4-carboxamide]	< 0.001
Cc1cc2c(N)nccc2c(C)c1CNc1ccc2ncc(C(O)c3ccc4ccccc4c3)n2c1 (centres unmarked) [Example 521, (6-(((1-amino-5,7-dimethylisoquinolin-6-yl)methyl)amino)imidazo[1,2-a]pyridin-3-yl)(naphthalen-2-yl)methanol]	> 1
Cc1cc2c(N)nccc2c(C)c1CNC(=O)c1cnn([C@H](C)c2ccccc2)c1 [Example 127, (R)-N-((1-amino-5,7-dimethylisoquinolin-6-yl)methyl)-1-(1-phenylethyl)-1H-pyrazole-4-carboxamide]	0.1 to 1
Cc1cc2c(N)nccc2c(C)c1CNC(=O)c1cnn(Cc2nc3ccccc3n2C(F)F)c1 [Example 68, N-((1-amino-5,7-dimethylisoquinolin-6-yl)methyl)-1-((1-(difluoromethyl)-1H-benzo[d]imidazol-2-yl)methyl)-1H-pyrazole-4-carboxamide]	0.01 to 0.1
Cc1cc2c(N)nccc2c(C)c1CNC(=O)c1cnn(Cc2nc3ccccc3s2)c1 [Example 76, N-((1-amino-5,7-dimethylisoquinolin-6-yl)methyl)-1-(benzo[d]thiazol-2-ylmethyl)-1H-pyrazole-4-carboxamide]	0.01 to 0.1
Cc1cc2c(Nc3cc(OCc4ccc5ncc(C6CC6)cc5c4)ccn3)nccc2c(C)c1CN [Example 238, 6-(aminomethyl)-N-(4-((3-cyclopropylquinolin-6-yl)methoxy)pyridin-2-yl)-5,7-dimethylisoquinolin-1-amine]	0.1 to 1
Cc1cc2c(N)nccc2c(C)c1CNC(=O)c1cnn(Cc2cc3ccccc3s2)c1 [Example 84, N-((1-amino-5,7-dimethylisoquinolin-6-yl)methyl)-1-(benzo[b]thiophen-2-ylmethyl)-1H-pyrazole-4-carboxamide]	0.001 to 0.01
Cc1cc2c(N)nccc2c(C)c1CNC(=O)c1cnn(Cc2cnc3ccc(Br)cc3c2)c1 [Example 70, N-((1-amino-5,7-dimethylisoquinolin-6-yl)methyl)-1-((6-bromoquinolin-3-yl)methyl)-1H-pyrazole-4-carboxamide]	< 0.001
CCOC(=O)N(C)c1ccc(Cn2cc(C(=O)NCc3c(C)cc4c(N)nccc4c3C)cn2)cc1 [Example 25, ethyl (4-((4-(((1-amino-5,7-dimethylisoquinolin-6-yl)methyl)carbamoyl)-1H-pyrazol-1-yl)methyl)phenyl)(methyl)carbamate]	0.001 to 0.01
Cc1cc2c(N)nccc2c(C)c1CNC(=O)c1cnn(Cc2ccc3c(-n4ccccc4=O)cccc3c2)c1 [Example 125, N-((1-amino-5,7-dimethylisoquinolin-6-yl)methyl)-1-((5-(2-oxopyridin-1(2H)-yl)naphthalen-2-yl)methyl)-1H-pyrazole-4-carboxamide]	< 0.001
Cc1cc2c(N)nccc2c(C)c1CNC(=O)c1cnn(Cc2cc3cc(F)ccc3o2)c1 [Example 57, N-((1-amino-5,7-dimethylisoquinolin-6-yl)methyl)-1-((5-fluorobenzofuran-2-yl)methyl)-1H-pyrazole-4-carboxamide]	0.01 to 0.1
Cc1cc2c(N)nccc2c(C)c1CNC(=O)c1cnn(Cc2cc3cc(C4CC4)ccn3n2)c1 [Example 121, N-((1-amino-5,7-dimethylisoquinolin-6-yl)methyl)-1-((5-cyclopropylpyrazolo[1,5-a]pyridin-2-yl)methyl)-1H-pyrazole-4-carboxamide]	< 0.001

Results, then the molecule that gave them:

EC50 [µM]	SMILES
< 0.001	Cc1cc2c(N)nccc2c(C)c1CNc1cc(NCc2ccc(Cn3ccccc3=O)cc2)ncn1 [Example 237, 1-(4-(((6-(((1-amino-5,7-dimethylisoquinolin-6-yl)methyl)amino)pyrimidin-4-yl)amino)methyl)benzyl)pyridin-2(1H)-one]
< 0.001	Cc1cc2c(N)nccc2c(C)c1CNc1cc(OCc2ccc3ncc(C(F)(F)F)cc3c2)cnn1 [Example 423, 5,7-dimethyl-6-(((5-((3-(trifluoromethyl)quinolin-6-yl)methoxy)pyridazin-3-yl)amino)methyl)isoquinolin-1-amine]
< 0.001	Cc1cc2c(N)nccc2c(C)c1CNc1cc(OCc2ccc3ncc(Cl)cc3c2)cnn1 [Example 407, 6-(((5-((3-chloroquinolin-6-yl)methoxy)pyridazin-3-yl)amino)methyl)-5,7-dimethylisoquinolin-1-amine]
< 0.001	Cc1cc2c(N)nccc2c(C)c1CNc1cc(OCc2ccc(Cc3cccn4ccnc34)cc2)cnn1 [Example 444, 6-(((5-((4-(imidazo[1,2-a]pyridin-8-ylmethyl)benzyl)oxy)pyridazin-3-yl)amino)methyl)-5,7-dimethylisoquinolin-1-amine]
0.001 to 0.01	Cc1cc2c(N)nccc2c(C)c1CNc1cc(NCc2ccc(OCC(=O)N3CCCCC3)cc2)ncn1 [Example 346, 2-(4-(((6-(((1-amino-5,7-dimethylisoquinolin-6-yl)methyl)amino)pyrimidin-4-yl)amino)methyl)phenoxy)-1-(piperidin-1-yl)ethan-1-one]
0.1 to 1	CCCCc1cc(COc2cc(NCc3c(C)cc4c(N)nccc4c3C)ncn2)cc2cc(Cl)cnc12 [Example 402, 6-(((6-((8-butyl-3-chloroquinolin-6-yl)methoxy)pyrimidin-4-yl)amino)methyl)-5,7-dimethylisoquinolin-1-amine]
< 0.001	Cc1cc2c(N)nccc2c(C)c1CNc1cc(OCc2ccc(Cc3cccn(C)c3=O)cc2)cnn1 [Example 440, 3-(4-(((6-(((1-amino-5,7-dimethylisoquinolin-6-yl)methyl)amino)pyridazin-4-yl)oxy)methyl)benzyl)-1-methylpyridin-2(1H)-one]
0.01 to 0.1	Cc1cc2c(N)nccc2c(C)c1CNc1cc(OCc2ccc(-n3ccccc3=O)cc2)ncn1 [Example 296, 1-(4-(((6-(((1-amino-5,7-dimethylisoquinolin-6-yl)methyl)amino)pyrimidin-4-yl)oxy)methyl)phenyl)pyridin-2(1H)-one]
< 0.001	Cc1cc2c(N)nccc2c(C)c1CNc1cc(OCc2cn3cc(C4CC4)cnc3n2)nc(C(=O)O)n1 [Example 488, 4-(((1-amino-5,7-dimethylisoquinolin-6-yl)methyl)amino)-6-((6-cyclopropylimidazo[1,2-a]pyrimidin-2-yl)methoxy)pyrimidine-2-carboxylic acid]
0.01 to 0.1	Cc1cc2c(N)nccc2c(C)c1CNc1cc(OCc2cc3cc(C4CC4)ccc3s2)ncn1 [Example 395, 6-(((6-((5-cyclopropylbenzo[b]thiophen-2-yl)methoxy)pyrimidin-4-yl)amino)methyl)-5,7-dimethylisoquinolin-1-amine]
0.001 to 0.01	Cc1cc2c(N)nccc2c(C)c1CNc1cc(OCc2cccc(-n3ccccc3=O)c2)cnn1 [Example 435, 1-(3-(((6-(((1-amino-5,7-dimethylisoquinolin-6-yl)methyl)amino)pyridazin-4-yl)oxy)methyl)phenyl)pyridin-2(1H)-one]
< 0.001	Cc1cc2c(N)nccc2c(C)c1CNc1cc(NCc2ccc(OCC(=O)N3CC4CC4C3)cc2)ncn1 (centres unmarked) [Example 344, 2-(4-(((6-(((1-amino-5,7-dimethylisoquinolin-6-yl)methyl)amino)pyrimidin-4-yl)amino)methyl)phenoxy)-1-(3-azabicyclo[3.1.0]hexan-3-yl)ethan-1-one, formic acid salt]
0.01 to 0.1	Cc1cc2c(N)nccc2c(C)c1CNc1ncnc2[nH]c(Cc3ccc4ccccc4c3)cc12 [Example 540, 5,7-dimethyl-6-(((6-(naphthalen-2-ylmethyl)-7H-pyrrolo[2,3-d]pyrimidin-4-yl)amino)methyl)isoquinolin-1-amine]
< 0.001	Cc1cc2c(N)nccc2c(C)c1CNc1cc(OCc2ccc(Cn3cccn3)cn2)cnn1 [Example 446, 6-(((5-((5-((1H-pyrazol-1-yl)methyl)pyridin-2-yl)methoxy)pyridazin-3-yl)amino)methyl)-5,7-dimethylisoquinolin-1-amine]
< 0.001	Cc1cc2c(N)nccc2c(C)c1CNc1cc(OCc2ccc3nc(C)c(C)nc3c2)cnn1 [Example 418, 6-(((5-((2,3-dimethylquinoxalin-6-yl)methoxy)pyridazin-3-yl)amino)methyl)-5,7-dimethylisoquinolin-1-amine, formic acid salt]
0.01 to 0.1	Cc1cc2c(N)nccc2c(C)c1CNc1ncnc(NCc2ccc(Cn3cccn3)cc2)c1F [Example 234, N4-(4-((1H-pyrazol-1-yl)methyl)benzyl)-N6-((1-amino-5,7-dimethylisoquinolin-6-yl)methyl)-5-fluoropyrimidine-4,6-diamine]
